In the assay the target is T1, MALT-1 (Isoform 1) (Homo sapiens, UniProt Q9UDY8).
T1 construct: using recombinant MALT-1 (Isoform 1, aa-840) generated in house; made in house
T1 sequence (Q9UDY8 1-824): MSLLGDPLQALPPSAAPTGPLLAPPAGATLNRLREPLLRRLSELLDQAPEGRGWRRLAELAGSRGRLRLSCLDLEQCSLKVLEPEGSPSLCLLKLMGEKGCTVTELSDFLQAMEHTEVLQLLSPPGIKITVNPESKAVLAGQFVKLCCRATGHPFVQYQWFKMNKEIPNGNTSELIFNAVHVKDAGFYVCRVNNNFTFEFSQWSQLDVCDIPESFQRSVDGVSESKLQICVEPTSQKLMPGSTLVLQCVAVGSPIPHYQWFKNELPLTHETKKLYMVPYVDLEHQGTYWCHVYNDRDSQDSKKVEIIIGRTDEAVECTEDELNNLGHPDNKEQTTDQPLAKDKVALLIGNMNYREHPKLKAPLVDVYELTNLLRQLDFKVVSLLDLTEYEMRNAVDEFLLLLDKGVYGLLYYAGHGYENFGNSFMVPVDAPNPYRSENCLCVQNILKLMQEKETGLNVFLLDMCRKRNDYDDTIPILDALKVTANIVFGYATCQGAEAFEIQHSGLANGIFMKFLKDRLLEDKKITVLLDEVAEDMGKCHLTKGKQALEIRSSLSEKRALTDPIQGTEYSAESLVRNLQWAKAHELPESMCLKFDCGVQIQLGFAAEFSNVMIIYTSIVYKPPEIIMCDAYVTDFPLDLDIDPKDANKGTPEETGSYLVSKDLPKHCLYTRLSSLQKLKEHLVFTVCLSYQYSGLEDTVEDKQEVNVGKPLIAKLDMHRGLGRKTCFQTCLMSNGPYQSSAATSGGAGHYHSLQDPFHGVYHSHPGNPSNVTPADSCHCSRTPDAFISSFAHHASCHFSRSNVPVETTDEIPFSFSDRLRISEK
Briefly: MALT-1 (Isoform 1) enzyme fluorescent biochemical assay. Particulars: for IC50: dose-response, sigmoidal curve fit, reported as groups A, B, C; for inhibition at 1 µM / Percent Inhibition (1 μM): test compound 1 μM; for inhibition at 1 µM / Percent Inhibition (1 μM) / inhibition at 10 µM: recombinant MALT-1 1.5 nM; for inhibition at 1 µM: read-out: Percent Inhibition (1 μM); for inhibition at 10 µM: test compound 10 μM (stated in the cell), read-out: Percent Inhibition (10 μM). On the procedure: The potency of compounds to inhibit MALT-1 (Isoform 1) enzyme was tested in a Fluorescent assay using recombinant MALT-1 (Isoform 1, aa-840) generated in house. The assay buffer was 50 mM HEPES (pH 7.5), 100 mM NaCl, 10 mM DTT, 1 mM EDTA, 0.9 M sodium citrate, 0.01% CHAPS. 1.5 nM of MALT-1 enzyme was incubated with test compounds ([…]) (1% DMSO) in the presence of buffer for 30 minutes at 30° C. The protease reaction was initiated by adding […] of AC-LRSR-MAC (Peptide International, USA) substrate and incubated for 240 min. After 240 min incubation, fluorescence emission of the samples at 460 nm was measured at an excitation of 355 nm. The percent inhibition was calculated using the following formula: […]. IC50 values were determined by fitting the dose-response data to sigmoidal curve fitting equation using Graph pad prism software V8.
ND represents Not Determined.

Bounds are passed on as bounds.

As usually defined, the IC50 is the concentration needed to halve the response being measured. A lower IC50 goes with higher potency. As a reminder, the inhibition is how much of the control response was suppressed. For the compound `N#Cc1cc(NC(=O)c2cnn(Cc3cccc(F)c3)c2C2CC2)cnc1-n1nccn1` [Compound 23, N-(5-cyano-6-(2H-1,2,3-triazol-2-yl)pyridin-3-yl)-5-cyclopropyl-1-(3-fluorobenzyl)-1H-pyrazole-4-carboxamide], the IC50 is over 1000 nM and the inhibition at 1 µM worked out at 45%.
Consider `CC(c1ccccc1)n1ncc(C(=O)Nc2cnc(-n3nccn3)c(Cl)c2)c1C(F)(F)F` (single isomer, unassigned) [Compound 5a], for which the IC50 was in the range of 251 to 1000 nM and the “Percent Inhibition (1 μM)” value is given as 78%.
In the same order, the values of `CC(c1ccccc1)n1ncc(C(=O)Nc2cnc(-n3nccn3)c(C#N)c2)c1C(F)(F)F` (single isomer, unassigned) [Compound 2b] are 251 to 1000 nM and 57%.
Take `Cc1c(F)cccc1Cn1ncc(C(=O)Nc2cnc(-n3nccn3)c(C#N)c2)c1C(F)(F)F` [Compound 26, N-(5-cyano-6-(2H-1,2,3-triazol-2-yl)pyridin-3-y1)-1-(3-fluoro-2-methylbenzyl)-5-(trifluoromethyl)-1H-pyrazole-4-carboxamide]: the IC50 is under 250 nM and the inhibition at 1 µM was found to be 100%.
`Cc1c(F)cccc1C(C)n1ncc(C(=O)Nc2cnc(-n3nccn3)c(C#N)c2)c1C(F)(F)F` (stereo not drawn) [Compound 52, N-(5-cyano-6-(2H-1,2,3-triazol-2-yl)pyridin-3-yl)-1-(1-(3-fluoro-2-methylphenyl)ethyl)-5-(trifluoromethyl)-1H-pyrazole-4-carboxamide]: the concentration for half-maximal inhibition (IC50) was under 250 nM and the inhibition at 1 µM turned out to be 100%.
On to `CC(c1cccc(F)c1)n1ncc(C(=O)Nc2cnc(-n3nccn3)c(C#N)c2)c1C(F)(F)F` (single isomer, unassigned) [Compound 3a], for which the half-inhibitory concentration (IC50) lay within 251 to 1000 nM and the “Percent Inhibition (1 μM)” value is 76%.
On to `CC(c1cccc(F)c1)n1ncc(C(=O)Nc2cnc(-n3nccn3)c(Cl)c2)c1C(F)(F)F` (single isomer, unassigned) [Compound 4a], for which the IC50 is over 1000 nM and the inhibition at 10 µM came out at 83%.
As for `CC(c1cccc(F)c1)n1ncc(C(=O)Nc2cnc(-n3nccn3)c(Cl)c2)c1C(F)(F)F` (single isomer, unassigned) [Compound 4b], the IC50 is under 250 nM and the inhibition at 1 µM stood at 94%.
In the same order, the values of `N#Cc1cc(NC(=O)c2cnn(Cc3ccccc3)c2C(F)(F)F)cnc1-n1nccn1` [Compound 7, 1-benzyl-N-(5-cyano-6-(2H-1,2,3-triazol-2-yl)pyridin-3-y1)-5-(trifluoromethyl)-1H-pyrazole-4-carboxamide] are 251 to 1000 nM and 88%.
`N#Cc1cc(NC(=O)c2cnn(Cc3cc(F)ccc3F)c2C(F)(F)F)cnc1-n1nccn1` [Compound 29, N-(5-cyano-6-(2H-1,2,3-triazol-2-yl)pyridin-3-y1)-1-(2,5-difluorobenzyl)-5-(trifluoromethyl)-1H-pyrazole-4-carboxamide]: the IC50 fell in the range of 251 to 1000 nM and the inhibition at 1 µM was 70%.
As for `O=C(Nc1cnnc(C(F)(F)F)c1)c1cnn(Cc2cccc(F)c2Cl)c1C(F)(F)F` [Compound 53, 1-(2-chloro-3-fluorobenzyl)-5-(trifluoromethyl)-N-(6-(trifluoromethyl)pyridazin-4-yl)-1H-pyrazole-4-carboxamide], the IC50 is 251 to 1000 nM and the inhibition at 1 µM is 60%.
In the same order, the values of `N#Cc1cc(NC(=O)c2cnn(Cc3ccc(Cl)cc3)c2C(F)(F)F)cnc1-n1nccn1` [Compound 9, 1-(4-chlorobenzyl)-N-(5-cyano-6-(2H-1,2,3-triazol-2-y1)pyridin-3-yl)-5-(trifluoromethyl)-1H-pyrazole-4-carboxamide] are 251 to 1000 nM and 55%.
In the same order, the values of `N#Cc1cc(NC(=O)c2cnn(Cc3cccc(F)c3F)c2C(F)(F)F)cnc1-n1nccn1` [Compound 27, N-(5-cyano-6-(2H-1,2,3-triazol-2-yl)pyridin-3-y1)-1-(2,3-difluorobenzyl)-5-(trifluoromethyl)-1H-pyrazole-4-carboxamide] are under 250 nM and 100%.
`CC(c1cccc(C#N)c1)n1ncc(C(=O)Nc2cnc(-n3nccn3)c(C#N)c2)c1C(F)(F)F` (stereo not drawn) [Compound 50, N-(5-cyano-6-(2H-1,2,3-triazol-2-yl)pyridin-3-yl)-1-(1-(3-cyanophenyl)ethyl)-5-(trifluoromethyl)-1H-pyrazole-4-carboxamide]: the IC50 is under 250 nM and the inhibition at 1 µM worked out at 65%.
In the same order, the values of `CC(C)C(c1cccc(F)c1)n1ncc(C(=O)Nc2cnc(-n3nccn3)c(C#N)c2)c1C(F)(F)F` (stereo not drawn) [Compound 48, N-(5-cyano-6-(2H-1,2,3-triazol-2-yl)pyridin-3-yl)-1-(1-(3-fluorophenyl)-2-methylpropyl)-5-(trifluoromethyl)-1H-pyrazole-4-carboxamide] are over 1000 nM and 23%.
Turning to `O=C(Nc1cc(C(F)(F)F)ncn1)c1cnn(Cc2cccc(F)c2Cl)c1C(F)(F)F` [Compound 44, 1-(2-chloro-3-fluorobenzyl)-5-(trifluoromethyl)-N-(6-(trifluoromethyl)pyrimidin-4-yl)-1H-pyrazole-4-carboxamide], the IC50 is over 1000 nM and the inhibition at 1 µM is 38%.
Consider `Cc1ccc(F)cc1Cn1ncc(C(=O)Nc2cnc(-n3nccn3)c(C#N)c2)c1C(F)(F)F` [Compound 28, N-(5-cyano-6-(2H-1,2,3-triazol-2-yl)pyridin-3-yl)-1-(5-fluoro-2-methylbenzyl)-5-(trifluoromethyl)-1H-pyrazole-4-carboxamide], for which the IC50 lay in the range of 251 to 1000 nM and the inhibition at 1 µM stood at 84%.
In the same order, the values of `CC(c1ccccc1)n1ncc(C(=O)Nc2cnc(-n3nccn3)c(Cl)c2)c1C(F)(F)F` (racemic) [Compound 5, N-(5-chloro-6-(2H-1,2,3-triazol-2-yl)pyridin-3-yl)-1-(1-phenylethyl)-5-(trifluoromethyl)-1H-pyrazole-4-carboxamide] are 251 to 1000 nM and 89%.
In the case of `O=C(Nc1ccnc(C(O)C(F)(F)F)c1)c1cnn(Cc2cccc(F)c2Cl)c1C(F)(F)F` (stereo not drawn) [Compound 47, 1-(2-chloro-3-fluorobenzyl)-N-(2-(2,2,2-trifluoro-1-hydroxyethyl)pyridin-4-y1)-5-(trifluoromethyl)-1H-pyrazole-4-carboxamide], the inhibition at 10 µM was 33%.
With `N#Cc1cc(NC(=O)c2cnn(Cc3cccc(F)c3C(F)F)c2C(F)(F)F)cnc1-n1nccn1` [Compound 56, N-(5-cyano-6-(2H-1,2,3-triazol-2-yl)pyridin-3-y1)-1-(2-(difluoromethyl)-3-fluorobenzyl)-5-(trifluoromethyl)-1H-pyrazole-4-carboxamide], the IC50 lay within 251 to 1000 nM and the inhibition at 1 µM came out at 77%.
In the case of `CC(c1cccc(F)c1)n1ncc(C(=O)Nc2cnc(-n3nccn3)c(C#N)c2)c1C(F)(F)F` (racemic) [Compound 3, N-(5-cyano-6-(2H-1,2,3-triazol-2-yl)pyridin-3-yl)-1-(1-(3-fluorophenyl)ethyl)-5-(trifluoromethyl)-1H-pyrazole-4-carboxamide], the IC50 is under 250 nM and the inhibition at 1 µM is 83%.
For the compound `O=C(Nc1cnc(-n2nccn2)c(Cl)c1)c1cnn(Cc2cccc(F)c2)c1C(F)(F)F` [Compound 25, N-(5-chloro-6-(2H-1,2,3-triazol-2-yl)pyridin-3-yl)-1-(3-fluorobenzyl)-5-(trifluoromethyl)-1H-pyrazole-4-carboxamide], the IC50 is under 250 nM and the inhibition at 1 µM was found to be 100%.
As for `Cc1c(F)cccc1Cn1ncc(C(=O)Nc2cnc(-n3nccn3)c(Cl)c2)c1C(F)(F)F` [Compound 32, N-(5-chloro-6-(2H-1,2,3-triazol-2-y1)pyridin-3-y1)-1-(3-fluoro-2-methylbenzyl)-5-(trifluoromethyl)-1H-pyrazole-4-carboxamide], the IC50 was under 250 nM and the inhibition at 1 µM was 99%.

Source of the values: patent US20240132475A1, “SUBSTITUTED PYRAZOLYL COMPOUNDS AS MALT-1 INHIBITORS” (AURIGENE ONCOLOGY LIMITED, priority 2021, published 2024).
